Test results published in patent US5001134A, “Piperidines, processes of preparation and medications containing them” (Lipha, Lyonnaise Industrielle Pharmaceutique, priority 1989, dated 1991).

Assays:
[1] = system: isolated rat aorta; test: Antagonism towards serotonin in vitro on the isolated rat aorta (serotonin-triggered contraction); details: contraction by serotonin 20 μM, product added 10 min after serotonin, left 15 min, minimum of 3 aortas, read-out: Isolated rat aorta antiserotonin activity IC 50
Method: The thoracic aorta is rapidly removed. A fragment of approximately 1 cm is cut into a spiral and then placed in a cell containing 20 ml of nutrient medium (Krebs-Henseleit) kept at 37° C. and oxygenated (95% O2, 5% CO2). The contraction is recorded using an isotonic strain gauge. After a rest of 45 min, supramaximal contractions are triggered by adding serotonin (20 μM) to the survival medium. A plateau is generally reached after 10 min of contact, the latter not exceeding 25 min. A rest of 30 min and numerous rinsings separate each contraction. The products are added 10 min after the serotonin and left for 15 min, at the end of which period the inhibition is measured. The inhibiting concentration 50 (IC 50) is determined for each compound being studied on a minimum of 3 aortas.
(§1) The results obtained by these two methods in the case of a few products of the invention and in the case of ketanserin (3-[2-[4-(4-fluorobenzoyl)-1-piperidinyl]ethyl]quinazolin-2,4-(1H,3H)-dione), taken as control, are listed in Table I.

[2] = Toxicity, 50 lethal dose on the rat using the oral route; details: in vivo
Method: By way of illustration, the 50 lethal dose determined on the rat using the oral route, in the case of the compound described in Example 1, is 1,700 mg/kg, that is 170 times the active dose in this species.

[3] = system: genetically hypertensive rat (SHR); test: Antihypertensive activity in the genetically hypertensive rat (SHR), oral, arterial pressure measured 3 hours later; type: in vivo; details: SHR male rats, groups of 10, 3 hours after oral treatment, read-out: Antihypertensive activity (SHR) M.A.D. (minimum dose significantly reducing the mean arterial pressure)
Method: The antihypertensive activity was investigated in the genetically hypertensive rat (SHR) whose arterial pressure was regularly monitored: hypertensive male rats having a particularly stable arterial pressure are grouped by 10 and treated orally with the compounds being studied Their arterial pressure is measured 3 hours later.
as §1

Compound | IC50 [1] [nM] | LD50 ([2]; oral route) [mg/kg] | selectivity ratio ([2]; oral, LD50 / active dose, read-out: 50 lethal dose as multiple of the active dose in this species) | minimal effective dose [3] [mg/kg]
CNC(=NC#N)NCCN1CCC(C(=O)c2ccc(F)cc2)CC1 [Example 1, N-Cyano-N'-[2-[4-(4-fluorobenzoyl)-1-piperidinyl]ethyl]-N"-methylguanidine] | 530 | 1700 | 170 | 10
CCNC(=NCCCN1CCC(c2noc3cc(F)ccc23)CC1)NC#N [Example 20, N-Cyano-N'-ethyl-N"-[3-[4-(6-fluoro-1,2-benzisoxazol-3-yl)-1-piperidinyl]propyl]guanidine] | 40 | – | – | 0.5
CN(C)C(=NCCCN1CCC(c2noc3cc(F)ccc23)CC1)NC#N [Example 21, N'-Cyano-N,N-dimethyl-N"-[3-[4-(6-fluoro-1,2-benzisoxazol-3-yl)-1-piperidinyl]propyl]guanidine] | 100 | – | – | 2
N#CNC(=N)NCCCN1CCC(c2noc3cc(F)ccc23)CC1 [Example 22, N-Cyano-N'-[3-[4-(6-fluoro-1,2-benzisoxazol-3-yl)-1-piperidinyl]propyl]guanidine] | 20 | – | – | 5
CNC(=C[N+](=O)[O-])NCCN1CCC(c2noc3cc(F)ccc23)CC1 [Example 26, N-[2-[4-(6-Fluoro-1,2-benzisoxazol-3-yl)-1-piperidinyl]ethyl]-N'-methyl-2-nitro-1,1-ethenediamine] | 380 | – | – | 5
O=C(c1ccc(F)cc1)C1CCN(CCn2c(=O)[nH]c3ccccc3c2=O)CC1 [Ketanserin, 3-[2-[4-(4-fluorobenzoyl)-1-piperidinyl]ethyl]quinazolin-2,4-(1H,3H)-dione, reference compound] | 150 | – | – | 25

Second part, led by results:

IC50 [1] [nM] | Compound | LD50 ([2]; oral route) [mg/kg] | selectivity ratio ([2]; oral, LD50 / active dose, read-out: 50 lethal dose as multiple of the active dose in this species) | minimal effective dose [3] [mg/kg]
460 | CN(C)C(=NCCN1CCC(C(=O)c2ccc(F)cc2)CC1)NC#N [Example 10, N'-Cyano-N,N-dimethyl-N"-[2-[4-(4-fluorobenzoyl)-1-piperidinyl]ethyl]guanidine] | – | – | 10
170 | CN=C(NC#N)NCCCN1CCC(C(=O)c2ccc(F)cc2)CC1 [Example 12, N-Cyano-N'-[3-[4-(4-fluorobenzoyl)-1-piperidinyl]propyl]-N"-methylguanidine] | – | – | 5
1950 | CN(C)C(=NC#N)NCCCN1CCC(C(=O)c2ccc(F)cc2)CC1 [Example 13] | – | – | 5
670 | CN=C(NC#N)NCCCCN1CCC(C(=O)c2ccc(F)cc2)CC1 [Example 14, N-Cyano-N'-[4-[4-(4-fluorobenzoyl)-1-piperidinyl]butyl]-N"-methylguanidine] | – | – | 10
90 | CN=C(NC#N)NCCN1CCC(c2noc3cc(F)ccc23)CC1 [Example 18, N-Cyano-N'-[2-[4-(6-fluoro-1,2-benzisoxazol-3-yl)-1-piperidinyl]ethyl]-N"-methylguanidine] | – | – | 2
50 | CN=C(NC#N)NCCCN1CCC(c2noc3cc(F)ccc23)CC1 [Example 19, N-Cyano-N'-[3-[4-(6-fluoro-1,2-benzisoxazol-3-yl)-1piperidinyl]propyl]-N"-methylguanidine] | – | – | 0.5
2900 | CNC(=C[N+](=O)[O-])NCCN1CCC(C(=O)c2ccc(F)cc2)CC1 [Example 24, N-[2-[4-(4-Fluorobenzoyl)-1-piperidinyl]ethyl]-N'-methyl-2-nitro-1,1-ethenediamine] | – | – | 10
